What all share (format): cell-based
Experiment [1] deals with Acinetobacter baumannii XNWB 0007. Description: MIC assay of test compounds combined with ceftazidime (8 μg/mL). The following applies: ceftazidime 8 μg/mL fixed. Summed up:
(§1)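 Broth microdilution in CAMHB per CLSI guidance: colonies grown on TSA at 35±2 °C for 20-24 h were suspended in 0.9% NaCl to OD600 0.1-0.15 and diluted 300-fold in 1.1×CAMHB. Compound plus fixed β-lactam plates were incubated at 35±2 °C for 16-20 h before the MIC was recorded.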

In experiment [2] the test system is Klebsiella pneumoniae XNWB 0001. The description is as above. The settings on record: ceftazidime 8 μg/mL fixed. Summed up:
as §1

Experiment [3] has as its system Klebsiella pneumoniae XNWB 0002. The description is as above. The settings on record: ceftazidime 8 μg/mL fixed. Summed up:
as §1

Experiment [4] concerns Klebsiella pneumoniae XNWB 0003. The description is as above. The settings on record: ceftazidime 8 μg/mL fixed. Summed up: as §1
Experiment [5] relates to Klebsiella pneumoniae XNWB 0004. Described as above. The settings on record: ceftazidime 8 μg/mL fixed. Summed up:
as §1

Experiment [6] concerns Klebsiella pneumoniae XNWB 0005. The description is as above. The settings on record: ceftazidime 8 μg/mL fixed. Summed up: as §1
Experiment [7] deals with Klebsiella pneumoniae XNWB 0006. The description is as above. The following applies: ceftazidime 8 μg/mL fixed. Summed up: as §1
In experiment [8] the test system is Pseudomonas aeruginosa XNWB 0008. The description is as above. The following applies: ceftazidime 8 μg/mL fixed. Summed up:
as §1

In experiment [9] the test system is Acinetobacter baumannii XNWB 0007. The experiment is described as follows: MIC assay of test compounds combined with imipenem (4 μg/mL). The settings on record: imipenem 4 μg/mL fixed. Summed up:
as §1

Experiment [10] concerns Klebsiella pneumoniae XNWB 0001. The experiment is described as above. The following applies: imipenem 4 μg/mL fixed. Summed up: as §1
In experiment [11] the test system is Klebsiella pneumoniae XNWB 0002. Described as above. The settings on record: imipenem 4 μg/mL fixed. Summed up: as §1
Experiment [12] concerns Klebsiella pneumoniae XNWB 0003. Described as above. The following applies: imipenem 4 μg/mL fixed. Summed up:
as §1

Experiment [13] concerns Klebsiella pneumoniae XNWB 0004. The description is as above. The settings on record: imipenem 4 μg/mL fixed. Summed up: as §1
Experiment [14] has as its system Klebsiella pneumoniae XNWB 0005. The experiment is described as above. The settings on record: imipenem 4 μg/mL fixed. Summed up:
as §1

Experiment [15] relates to Klebsiella pneumoniae XNWB 0006. The experiment is described as above. The settings on record: imipenem 4 μg/mL fixed. Summed up: as §1
For experiment [16], the system named is Pseudomonas aeruginosa XNWB 0008. The experiment is described as above. The following applies: imipenem 4 μg/mL fixed. Summed up:
as §1

Here are results for five compounds from patent US11078202B2, “β-lactamase inhibitor and use thereof” (priority 2018, dated 2021).

Structures can show the parent of a compound that is named as a salt.

Take `N[C@H]1C[C@H](Cc2nnc([C@@H]3CC4(CC4)[C@@H]4CN3C(=O)N4OS(=O)(=O)O)o2)C1` [Example 19, (1R,4S)-4-(5-(((1R,3R)-3-aminocyclobutyl)methyl)-1,3,4-oxadiazol-2-yl)-6-oxo-5,7-diazaspiro[bicyclo[3.2.1]octane-2,1′-cyclopropan]-7-yl sulfate]: the “The minimum concentration of test compounds combined with ceftazidime (8 μg/mL) for bacteriostasis” value is “C (C: 16-128 μg/mL)” in [1]; “A (A: <8 μg/mL)” in experiment [2]; “A (A: <8 μg/mL)” in experiment [3]; “A (A: <8 μg/mL)” in experiment [4]; “A (A: <8 μg/mL)” in experiment [5]; “A (A: <8 μg/mL)” in [6]. Besides, the results for the “The minimum concentration of test compounds combined with ceftazidime (8 μg/mL) for bacteriostasis” value in experiment [7] and in experiment [8] were “A (A: <8 μg/mL)” and “B (B: 8-16 μg/mL)”, respectively. For the same compound, the “The minimum concentration of test compounds combined with imipenem (4 μg/mL) for bacteriostasis” value is “B (B: 8-16 μg/mL)” in [9]; “A (A: <8 μg/mL)” in [10]; “A (A: <8 μg/mL)” in experiment [11]; “A (A: <8 μg/mL)” in experiment [12]; “A (A: <8 μg/mL)” in experiment [13]; “A (A: <8 μg/mL)” in experiment [14]. The “The minimum concentration of test compounds combined with imipenem (4 μg/mL) for bacteriostasis” value in [15] was “A (A: <8 μg/mL)”; in experiment [16], “B (B: 8-16 μg/mL)”.
Take `CNCCNC[C@H](O)c1nnc([C@@H]2CC3(CC3)[C@@H]3CN2C(=O)N3OS(=O)(=O)O)o1` [Example 30, (1R,4S)-4-(5-((S)-1-hydroxy-2-((2-(methylamino)ethyl)amino)ethyl)-1,3,4-oxadiazol-2-yl)-6-oxo-5,7-diazaspiro[bicyclo[3.2.1]octane-2,1′-cyclopropan]-7-yl sulfate]: the “The minimum concentration of test compounds combined with ceftazidime (8 μg/mL) for bacteriostasis” value in experiment [1] was “C (C: 16-128 μg/mL)”; in experiment [2] it was “B (B: 8-16 μg/mL)”; in experiment [3], “A (A: <8 μg/mL)”; in [4], “A (A: <8 μg/mL)”; in [5], “B (B: 8-16 μg/mL)”; in [6] it was “B (B: 8-16 μg/mL)”. The “The minimum concentration of test compounds combined with ceftazidime (8 μg/mL) for bacteriostasis” value in [7] is given as “A (A: <8 μg/mL)”; in experiment [8], “C (C: 16-128 μg/mL)”. The “The minimum concentration of test compounds combined with imipenem (4 μg/mL) for bacteriostasis” value in experiment [9] is given as “B (B: 8-16 μg/mL)”; in experiment [10], “A (A: <8 μg/mL)”; in [11] it was “A (A: <8 μg/mL)”; in experiment [12], “A (A: <8 μg/mL)”; in experiment [13] it was “A (A: <8 μg/mL)”; in [14], “A (A: <8 μg/mL)”. The “The minimum concentration of test compounds combined with imipenem (4 μg/mL) for bacteriostasis” value in [15] is given as “A (A: <8 μg/mL)”; in experiment [16], “C (C: 16-128 μg/mL)”.
Consider `N=C(N)NCC(O)c1cc([C@@H]2CC3(CC3)[C@@H]3CN2C(=O)N3OS(=O)(=O)O)no1` (stereo partly drawn) [Example 38, (1R,4S)-4-(5-(2-guanidyl-1-hydroxyethyl)isoxazol-3-yl)-6-oxo-5,7-diazaspiro[bicycle [3.2.1]octane-2,1′-cyclopropan]-7-yl sulfate], for which the “The minimum concentration of test compounds combined with ceftazidime (8 μg/mL) for bacteriostasis” value in experiment [1] is “C (C: 16-128 μg/mL)”; in [2], “A (A: <8 μg/mL)”; in experiment [3], “A (A: <8 μg/mL)”; in [4], “A (A: <8 μg/mL)”; in [5], “A (A: <8 μg/mL)”; in experiment [6], “A (A: <8 μg/mL)”. Also, the results for the “The minimum concentration of test compounds combined with ceftazidime (8 μg/mL) for bacteriostasis” value in experiment [7] and in experiment [8] were “A (A: <8 μg/mL)” and “B (B: 8-16 μg/mL)”, respectively. Further, the “The minimum concentration of test compounds combined with imipenem (4 μg/mL) for bacteriostasis” value was “C (C: 16-128 μg/mL)” in experiment [9]; “A (A: <8 μg/mL)” in experiment [10]; “A (A: <8 μg/mL)” in [11]; “A (A: <8 μg/mL)” in [12]; “A (A: <8 μg/mL)” in experiment [13]; “A (A: <8 μg/mL)” in experiment [14]. The “The minimum concentration of test compounds combined with imipenem (4 μg/mL) for bacteriostasis” value in experiment [15] and in [16] was “A (A: <8 μg/mL)” each time.
In the case of `N=C(N)N1CC(NCc2cc([C@@H]3CC4(CC4)[C@@H]4CN3C(=O)N4OS(=O)(=O)O)no2)C1` [Example 51, (1R,4S)-4-(5-(((1-amidinoazetidin-3-yl)amino)methyl)isoxazol-3-yl)-6-oxo-5,7-diazaspiro[bicyclo[3.2.1]octane-2,1′-cyclopropan]-7-yl sulfate], the “The minimum concentration of test compounds combined with ceftazidime (8 μg/mL) for bacteriostasis” value in [1] is listed as “C (C: 16-128 μg/mL)”; in experiment [2] it was “A (A: <8 μg/mL)”; in [3], “A (A: <8 μg/mL)”; in experiment [4], “B (B: 8-16 μg/mL)”; in experiment [5], “C (C: 16-128 μg/mL)”; in experiment [6], “B (B: 8-16 μg/mL)”. The “The minimum concentration of test compounds combined with ceftazidime (8 μg/mL) for bacteriostasis” value in experiment [7] was “A (A: <8 μg/mL)”; in experiment [8] it was “B (B: 8-16 μg/mL)”. The “The minimum concentration of test compounds combined with imipenem (4 μg/mL) for bacteriostasis” value in experiment [9] is listed as “C (C: 16-128 μg/mL)”; in experiment [10], “A (A: <8 μg/mL)”; in experiment [11], “A (A: <8 μg/mL)”; in experiment [12] it was “A (A: <8 μg/mL)”; in [13] it was “A (A: <8 μg/mL)”; in experiment [14] it was “A (A: <8 μg/mL)”. Besides, the “The minimum concentration of test compounds combined with imipenem (4 μg/mL) for bacteriostasis” value in [15] and in experiment [16] was “A (A: <8 μg/mL)” in each case.
For the compound `N[C@H]1C[C@@H](c2cc([C@@H]3CC4(CC4)[C@@H]4CN3C(=O)N4OS(=O)(=O)O)no2)C1` [Example 26, (1R,4S)-4-(5-((1R,3R)-3-aminocyclobutyl)isoxazol-3-yl)-6-oxo-5,7-diazaspiro[bicycle [3.2.1]octane-2,1′-cyclopropan]-7-yl sulfate], the “The minimum concentration of test compounds combined with ceftazidime (8 μg/mL) for bacteriostasis” value in [1] is recorded as “C (C: 16-128 μg/mL)”; in experiment [2] it was “A (A: <8 μg/mL)”; in experiment [3], “A (A: <8 μg/mL)”; in experiment [4], “A (A: <8 μg/mL)”; in [5], “A (A: <8 μg/mL)”; in [6], “A (A: <8 μg/mL)”. Besides, the “The minimum concentration of test compounds combined with ceftazidime (8 μg/mL) for bacteriostasis” value in experiment [7] was “A (A: <8 μg/mL)”; in experiment [8], “B (B: 8-16 μg/mL)”. Moreover, the “The minimum concentration of test compounds combined with imipenem (4 μg/mL) for bacteriostasis” value in experiment [9] is given as “C (C: 16-128 μg/mL)”; in [10], “A (A: <8 μg/mL)”; in experiment [11], “A (A: <8 μg/mL)”; in experiment [12] it was “A (A: <8 μg/mL)”; in experiment [13] it was “A (A: <8 μg/mL)”; in experiment [14], “A (A: <8 μg/mL)”. Moreover, the “The minimum concentration of test compounds combined with imipenem (4 μg/mL) for bacteriostasis” value in [15] and in experiment [16] was “A (A: <8 μg/mL)” each time.
